The source of these data is patent US20240101548A1, “HYDROXAMATE COMPOUND, PREPARATION METHOD THEREFOR AND APPLICATION THEREOF” (SHENZHEN CHIPSCREEN BIOSCIENCES CO., LTD., priority 2020, published 2024).

Like-named read-outs stand apart in the source and are kept apart here. A value given as a limit tells only on which side of the number the result lay.

Common to all, as to format: cell-based, human
Assay [1] relates to IL-10-induced JAK1/TYK2 signal pathway. Kind of assay: IL-10-induced JAK1/TYK2 signal pathway STAT3-Luc reporter gene assay in U2OS cells. The note with it: U2OS cells, STAT3-Luc reporter, IL-10 10 ng/mL, read-out: Half inhibition dose (IC50) on IL-10-induced JAK1/TYK2 signal pathway. Summed up:
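Luciferase read-out (560 nm) corrected by GFP signal (Ex485/Em520) gives IL-10 pathway activity, and IC50 is derived from inhibition rates. Cells were U2OS transfected with IL-10R1 plus STAT3-Luc reporter, pretreated 6 h with 0.1–300 nM compound, then stimulated 24 h with IL-10 at 10 ng/mL.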
(In general: A reporter such as luciferase makes a cellular process visible.)

The subject of assay [2] is IL-2-induced JAK1/JAK3 signal pathway. Kind of assay: IL-2-induced proliferation of KHYG-1 cells (JAK1/JAK3 signal). The note with it: Homo sapiens; KHYG-1 cell proliferation, IL-2 10 ng/mL, 72 hours; read-out: Inhibition activity IC50 on IL-2-induced JAK1/JAK3 signal pathway. The procedure, abridged: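 Controls were wells lacking both compound and cytokine (0%) and compound-free IL-2 wells (100%). C50 was calculated from inhibition rates across doses.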

Assay [3] relates to EPO-induced JAK2 signal pathway. As to the kind of experiment: EPO-induced proliferation of UT-7 cells (JAK2 signal). The note with it: Homo sapiens, UT7; UT-7 cell proliferation, EPO 10 ng/mL, 72 hours; read-out: Inhibition activity IC50 on EPO-induced JAK2 signal pathway. Summed up:
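[…] was derived from inhibition rates across doses, scaled between wells lacking compound and cytokine (0) and EPO without compound (100), using alamarBlue fluorescence at Ex530/Em590. Compound (final 0-10000 nM) and 10 ng/mL EPO were given to UT-7 cells at 15000 per well for 72 h at 37° C.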

As to `CCONC(=O)c1cnc(Nc2ccc(F)cn2)cc1Nc1ccc(Cl)cc1N(C)S(C)(=O)=O` [Example 128, 4-((4-chloro-2-(N-methylmethanesulfonamido)phenyl)amino)-N-ethoxy-6-((5-fluoropyridin-2-yl)amino)nicotinamide], the IC50 is 0.000697 µM in assay [1] (Homo sapiens, U2OS); more than 10 µM in assay [2]; more than 10 µM in assay [3].

In the case of `CCONC(=O)c1cnc(Nc2cccc(F)n2)cc1Nc1ccc(Cl)cc1N(C)S(C)(=O)=O` [Example 129, 4-((4-chloro-2-(N-methylmethanesulfonamido)phenyl)amino)-N-ethoxy-6-((6-fluoropyridin-2-yl)amino)nicotinamide], the IC50 in assay [1] (Homo sapiens, U2OS) is 0.00108 µM; in assay [2] it was more than 10 µM; in assay [3], more than 10 µM.

In the case of `CCONC(=O)c1cnc(Nc2ccc(F)cn2)cc1Nc1ccc(N2CCOCC2)cc1N(C)S(C)(=O)=O` [Example 130], the IC50 in assay [1] (Homo sapiens, U2OS) was 0.000802 µM; in assay [2], more than 10 µM; in assay [3] it was more than 10 µM.

As for `CCONC(=O)c1cnc(Nc2cc(C)nc(C)n2)cc1Nc1ccc(OC)cc1N(C)S(C)(=O)=O` [Example 131, 6-((2,6-dimethylpyrimidin-4-yl)amino)-N-ethoxy-4-((4-methoxy-2-(N-methylmethanesulfonamido)phenyl)amino)nicotinamide], the IC50 in assay [1] (Homo sapiens, U2OS) was 0.000572 µM; in assay [2] it was more than 10 µM; in assay [3] it was more than 10 µM.

With `CCONC(=O)c1cnc(Nc2cc(C)nc(C)n2)cc1Nc1ccc(N2CCCCC2)cc1N(C)S(C)(=O)=O` [Example 132, 6-((2,6-dimethylpyrimidin-4-yl)amino)-N-ethoxy-4-((2-(N-methylmethanesulfonamido)-4-(piperidin-1-yl)phenyl)amino)nicotinamide], the IC50 was 0.000977 µM in assay [1] (Homo sapiens, U2OS); more than 10 µM in assay [2]; more than 10 µM in assay [3].

In the case of `CCONC(=O)c1cnc(Nc2cc(C)nc(C)n2)cc1Nc1ccc(C)cc1N(C)S(C)(=O)=O` [Example 133, 6-((2,6-dimethylpyrimidin-4-yl)amino)-N-ethoxy-4-((4-methyl-2-(N-methylmethanesulfonamido)phenyl)amino)nicotinamide], the IC50 was 0.000618 µM in assay [1] (Homo sapiens, U2OS); more than 10 µM in assay [2]; more than 10 µM in assay [3].

Turning to `CCONC(=O)c1cnc(Nc2cc(C)nc(C)n2)cc1Nc1ccc(N2CCOCC2)cc1N(C)S(C)(=O)=O` [Example 134, 6-((2,6-dimethylpyrimidin-4-yl)amino)-N-ethoxy-4-((2-(N-methylmethanesulfonamido)-4-morpholinophenyl)amino)nicotinamide], the IC50 in assay [1] (Homo sapiens, U2OS) is 0.00277 µM; in assay [2] it was more than 10 µM; in assay [3], more than 10 µM.

Take `CCONC(=O)c1cnc(Nc2cnccn2)cc1Nc1ccc(N2CCOCC2)cc1N(C)S(C)(=O)=O` [Example 136, N-ethoxy-4-((2-(N-methylmethanesulfonamido)-4-morpholinophenyl)amino)-6-(pyrazin-2-ylamino)nicotinamide]: the IC50 in assay [1] (Homo sapiens, U2OS) is 0.00249 µM; in assay [2], more than 10 µM; in assay [3], more than 10 µM.

As to `CCONC(=O)c1cnc(Nc2ccccn2)cc1Nc1ccc(C2CC2)cc1N(C)S(C)(=O)=O` [Example 138, 4-((4-cyclopropyl-2-(N-methylmethanesulfonamido)phenyl)amino)-N-ethoxy-6-(pyridin-2-ylamino)nicotinamide], the IC50 in assay [1] (Homo sapiens, U2OS) is 0.000601 µM; in assay [2], more than 10 µM; in assay [3], more than 10 µM.

Consider `CCONC(=O)c1cnc(NC(=O)C2CC2)cc1Nc1ccc(C2CC2)cc1N(C)S(C)(=O)=O` [Example 139, 6-(cyclopropylcarboxamido)-4-((4-cyclopropyl-2-(N-methylmethanesulfonamido)phenyl)amino)-N-ethoxy nicotinamide], for which the IC50 in assay [1] (Homo sapiens, U2OS) is 0.0014 µM; in assay [2] it was more than 10 µM; in assay [3] it was more than 10 µM.

For `C#Cc1ccc(Nc2cc(Nc3ccc(OC)cn3)ncc2C(=O)NOCC)c(N(C)S(C)(=O)=O)c1` [Example 141, N-ethoxy-4-((4-ethynyl-2-(N-methylmethanesulfonamido)phenyl)amino)-6-(5-methoxypyridin-2-ylamino)nicotinamide], the IC50 in assay [1] (Homo sapiens, U2OS) is 0.000489 µM; in assay [2], more than 10 µM; in assay [3], more than 10 µM.

In the case of `C#Cc1ccc(Nc2cc(Nc3ccc(C#N)cn3)ncc2C(=O)NOCC)c(N(C)S(C)(=O)=O)c1` [Example 142, 6-(5-cyanopyridin-2-ylamino)-N-ethoxy-4-((4-ethynyl-2-(N-methylmethanesulfonamido)phenyl)amino)nicotinamide], the IC50 in assay [1] (Homo sapiens, U2OS) is 0.00041 µM; in assay [2] it was more than 10 µM; in assay [3] it was more than 10 µM.

As for `C#Cc1ccc(Nc2cc(Nc3cccc(F)n3)ncc2C(=O)NOCC)c(N(C)S(C)(=O)=O)c1` [Example 143, N-ethoxy-4-((4-ethynyl-2-(N-methylmethanesulfonamido)phenyl)amino)-6-(6-fluoropyridin-2-ylamino)nicotinamide], the IC50 was 0.000496 µM in assay [1] (Homo sapiens, U2OS); more than 10 µM in assay [2]; more than 10 µM in assay [3].

Consider `C#Cc1ccc(Nc2cc(Nc3ccc(F)cn3)ncc2C(=O)NOCC)c(N(C)S(C)(=O)=O)c1` [Example 144, N-ethoxy-4-((4-ethynyl-2-(N-methylmethanesulfonamido)phenyl)amino)-6-(5-fluoropyridin-2-ylamino)nicotinamide], for which the IC50 in assay [1] (Homo sapiens, U2OS) was 0.000969 µM; in assay [2], more than 10 µM; in assay [3], more than 10 µM.

For `CCONC(=O)c1cnc(Nc2cnccn2)cc1Nc1ccc(C2CC2)cc1N(C)S(C)(=O)=O` [Example 145, 4-((4-cyclopropyl-2-(N-methylmethanesulfonamido)phenyl)amino)-N-ethoxy-6-(pyrazin-2-ylamino)nicotinamide], the IC50 is 0.000301 µM in assay [1] (Homo sapiens, U2OS); more than 10 µM in assay [2]; more than 10 µM in assay [3].

As for `CCONC(=O)c1cnc(Nc2cccc(C)n2)cc1Nc1ccc(C2CC2)cc1N(C)S(C)(=O)=O` [Example 146, 4-((4-cyclopropyl-2-(N-methylmethanesulfonamido)phenyl)amino)-N-ethoxy-6-((6-methylpyridin-2-yl)amino)nicotinamide], the IC50 in assay [1] was 0.00252 µM; in assay [2], more than 10 µM; in assay [3], more than 10 µM.

Take `CCONC(=O)c1cnc(Nc2cccnn2)cc1Nc1ccc(Cl)cc1N(C)S(C)(=O)=O` [Example 151, 4-((4-chloro-2-(N-methylmethanesulfonamido)phenyl)amino)-N-ethoxy-6-(pyridazin-3-ylamino)nicotinamide]: the IC50 in assay [1] (Homo sapiens, U2OS) was 0.00207 µM; in assay [2], more than 10 µM; in assay [3], more than 10 µM.

Turning to `CCONC(=O)c1cnc(Nc2cccnn2)cc1Nc1ccc(C2CC2)cc1N(C)S(C)(=O)=O` [Example 153, 4-((4-cyclopropyl-2-(N-methylmethanesulfonamido)phenyl)amino)-N-ethoxy-6-(pyridazin-3-ylamino)nicotinamide], the IC50 in assay [1] (Homo sapiens, U2OS) is 0.00151 µM; in assay [2] it was more than 10 µM; in assay [3], more than 10 µM.

Consider `C#Cc1ccc(Nc2cc(Nc3ccc(C4CC4)cn3)ncc2C(=O)NOCC)c(N(C)S(C)(=O)=O)c1` [Example 154, 6-((5-cyclopropylpyridin-2-yl)amino)-N-ethoxy-4-((4-ethynyl-2-(N-methylmethanesulfonamido)phenyl)amino)nicotinamide], for which the IC50 in assay [1] (Homo sapiens, U2OS) is 0.00152 µM; in assay [2], more than 10 µM; in assay [3] it was more than 10 µM.

Regarding `CCONC(=O)c1cnc(Nc2ccc(C3CC3)cn2)cc1Nc1ccc(OC)cc1N(C)S(C)(=O)=O` [Example 155, 6-((5-cyclopropylpyridin-2-yl)amino)-N-ethoxy-4-((4-methoxy-2-(N-methylmethanesulfonamido)phenyl)amino)nicotinamide], the IC50 in assay [1] (Homo sapiens, U2OS) is 0.00179 µM; in assay [2], more than 10 µM; in assay [3], more than 10 µM.

For the compound `CCONC(=O)c1cnc(Nc2ncc(C)s2)cc1Nc1ccc(C2CC2)cc1N(C)S(C)(=O)=O` [Example 156, 4-((4-cyclopropyl-2-(N-methylmethanesulfonamido)phenyl)amino)-N-ethoxy-6-((5-methylthiazol-2-yl)amino)nicotinamide], the IC50 in assay [1] (Homo sapiens, U2OS) is 0.001 µM; in assay [2], more than 10 µM; in assay [3] it was more than 10 µM.

For the compound `CCONC(=O)c1cnc(Nc2nc(C)cs2)cc1Nc1ccc(C2CC2)cc1N(C)S(C)(=O)=O` [Example 157, 4-((4-cyclopropyl-2-(N-methylmethanesulfonamido)phenyl)amino)-N-ethoxy-6-((4-methylthiazol-2-yl)amino)nicotinamide], the IC50 was 0.00149 µM in assay [1] (Homo sapiens, U2OS); more than 10 µM in assay [2]; more than 10 µM in assay [3].

For the compound `CCONC(=O)c1cnc(Nc2ccc(C)nn2)cc1Nc1ccc(C2CC2)cc1N(C)S(C)(=O)=O` [Example 159, 4-((4-cyclopropyl-2-(N-methylmethanesulfonamido)phenyl)amino)-N-ethoxy-6-((6-methylpyridazin-3-yl)amino)nicotinamide], the IC50 was 0.000907 µM in assay [1] (Homo sapiens, U2OS); more than 10 µM in assay [2]; more than 10 µM in assay [3].
